Measurements: patent publication US4594345A, “Methylflavone-8-carboxylates” (Nippon Shinyaku Co. Ltd., priority 1982, dated 1986)

Key:
[1] = tested on: SRS-A; assay: Anti-SRS-A action (SRS-A induced shrinkage of guinea pig ileus); set-up: species or system guinea pig (Hartley strain male); conditions: treated five minutes before SRS-A (20 units), 5 min; for SRS-A Inhibition Ratio % 10^-6 M: 1 µM; for SRS-A Inhibition Ratio % 10^-7 M: 0.1 µM
Procedure: (§1) The effect of the compounds (I) of the present invention in the treatment of asthma and allergic diseases were evaluated by a passive cutaneous anaphylaxis assay (PCA) in rats and by measuring anti-SRS-A action using ileus of guinea pigs.
Anti-SRS-A action (An anti-action against slow reacting substance of anaphylaxie)
Hartley strain male guinea pigs (300 to 350 grams body weight) are killed and 1.0 to 1.5 cm of ileus is immediately excised from ileocecal parts and is suspended in 10 ml of Tyrode solution (95% O2 -5% CO2 saturation) containing 10^-7 g/ml of atropine and 10^-6 g/ml of pyrilamine. SRS-A (20 units) (the amount of SRS-A showing the same shrinkage as 5 ng of histamine is defined as one unit) prepared by using sensitized guinea pig lung is given to cause shrinkage there. Then antagonistic action of test compounds treated five minutes ago against the shrinkage is measured and recorded via isotonic transducer. [formula] in which A' is a height of shrinkage of SRS-A + test compound and A is that of SRS-A.

[2] = tested on: passive cutaneous anaphylaxis (PCA); assay: Passive cutaneous anaphylaxis assay (PCA) in rats; assay type: in vivo, rat (Wister strain); conditions: oral 10 mg/kg, one hour before antigen; for inhibition in vivo at 10 mg/kg: Rattus norvegicus, po, 1 h, read-out: PCA Inhibition Ratio %
Procedure: as §1
(i) Antiserum abundant in homocytotropic antibody is prepared by the same method as Tada and Okumura did (cf. Journal of Immunology, volume 106, page 1002, […]). Thus, one mg (calculated as an amount of protein) of DNP-As (2,4-dinitrophenyl-coupled ascaris extract) prepared by methods of Strejan and Campbell (Journal of Immunology, volume 98, page 893, 1971) and of Eisen (Journal of American Chemical Society, volume 85, page 4593, 1953) and […] pertussis vaccine are administered to each paw of Wister strain rats (180 to 200 grams body weights) by dividing the dose by four. Five days later, 0.5 mg of DNP-As is adminstered into muscle of back. Eight days later from the initial immunization, blood is taken from descending aorta under anesthetizing with ether, the resulting serum is stored at -80° C. and is melted before use.
(ii) Effect of tested compounds is investigated as follows:
Anti-serum obtained by the method (i) is diluted with physiological saline solution double by double successively and 0.05 ml of each diluted solution is administered into back of Wister strain rats (140 to 160 grams body weight) subcutaneously. After 72 hours, a solution of 2 mg (calculated as protein) of DNP-As and 2.5 mg of Evand Blue dissolved in 1 ml of physiological saline solution is administered intravenously at a dose of 5 ml/kg. After thirty minutes from antigen solution administration, the animals are killed and diameters of blue spots appeared at the place where antiserum is administered are measured. The PCA test is conducted by the same method as already described using a diluted solutions of antiserum which always show 10 mm or more of spot diameters and the effect of the test compounds is judged. Thus, antiserum diluted solutions are administered to two places in back. Test compounds are administered orally at the dose of 10 mg/kg one hour before administration of antigen solution. From the skin of reacted parts of killed animals, leaked or emitted dyestuff is extracted [cf. Baeck and Steinetz: J. Pharmacol. Exp. Ther., Vol. 131, page 400 (1961)] and the amount of the dyestuff is measured. The inhibition ratio is calculated by the following expression: [formula] in which R' is an amount of dyestuff in the group treated with the test compounds and A is that in the control group.

[3] = tested on: male mice; assay: Acute toxicity, oral, observed for two weeks; assay type: in vivo; conditions: oral 4000 mg/kg, dead/total
Procedure: Acute toxicity is observed for two weeks by oral adminsitration of 4000 mg/kg of the test compounds to male mice. One group consists of four mice. Numbers of dead mice are shown in numerators.

Row | Structure (SMILES) | SRS-A Inhibition Ratio % 10^-6 M [1] [%] | SRS-A Inhibition Ratio % 10^-7 M [1] [%] | inhibition in vivo at 10 mg/kg [2] [%] | Lethal Ratio [3] | PCA Inhibition Ratio % ([2]; 10 mg/kg) [%]
1 | CCOC(=O)c1cccc2c(=O)c(C)c(-c3ccccc3OC)oc12 [Example 11, ethyl 2'-methoxy-3-methylflavone-8-carboxylate] | 100 | 35.1 | 16.3 | 0/4 | 
2 | CCNC(=O)c1cccc2c(=O)c(C)c(-c3ccccc3OC)oc12 [Example 13, 2'-methoxy-3-methylflavone-8-carboxylic acid acid N-ethylamide] | 45.2 | 37.4 | 23 | 1/4 | 
3 | CCOc1ccccc1-c1oc2c(C(=O)N(CC)CC)cccc2c(=O)c1C [Example 18, 2'-ethoxy-3-methylflavone-8-carboxylic acid N,N-diethylamide] | 57.1 | 32.1 | 27.4 | 0/4 | 
4 | CCCCCCNC(=O)c1cccc2c(=O)c(C)c(-c3ccc(C(C)C)cc3)oc12 [Example 52, 4'-isopropyl-3-methylflavone-8-carboxylic acid N-n-hexylamide] | 66.1 | 20.7 | 13.5 |  | 
5 | Cc1c(-c2ccc(C(C)C)cc2)oc2c(C(=O)NC3CCCCC3)cccc2c1=O [Example 53, 4'-isopropyl-3-methylflavone-8-carboxylic acid N-cyclohexylamide] | 51.9 | 40.0 | 10.3 |  | 
6 | Cc1c(-c2ccc(C(C)C)cc2)oc2c(C(=O)N3CCCCC3)cccc2c1=O [Example 54, 4'-isopropyl-3-methylflavone-8-carboxylic acid N,N-pentamethylene amide] | 69.0 | 38.6 | 13 |  | 
7 | CCOC(=O)c1cccc2c(=O)c(C)c(-c3ccc(C(C)(C)C)cc3)oc12 [Example 56, ethyl 4'-tertiary butyl-3-methylflavone-8-carboxylate] | 44.9 | 19.0 | 20.2 |  | 
8 | CCN(CC)C(=O)c1cccc2c(=O)c(C)c(-c3ccc(C(C)(C)C)cc3)oc12 [Example 57, 4'-tertiary butyl-3-methylflavone-8-carboxylic acid N,N-diethylamide] | 39.1 | 10.4 | 19.1 |  | 
9 | CCCCCc1ccc(-c2oc3c(C(=O)OCC)cccc3c(=O)c2C)cc1 [Example 59, ethyl 3-methyl-4'-n-pentylflavone-8-carboxylate] | 38.1 | 9.8 | 19.4 |  | 
10 | CCCCCc1ccc(-c2oc3c(C(=O)N(CC)CC)cccc3c(=O)c2C)cc1 [Example 60, 3-methyl-4'-n-pentylflavone-8-carboxylic acid N,N-diethylamide] | 100 | 44.9 | 13.4 |  | 
11 | CCCCCc1ccc(-c2oc3c(C(=O)O)cccc3c(=O)c2C)cc1 [Example 61] | 40.7 | 9.4 |  |  | 22.7
12 | CCCCCCCCc1ccc(-c2oc3c(C(=O)O)cccc3c(=O)c2C)cc1 [Example 62, 3-methyl-4'-n-octylflavone-8-carboxylicacid] | 83.3 | 31.0 | 16.3 | 0/4 | 
13 | CCOC(=O)c1cccc2c(=O)c(C)c(-c3ccccc3Cl)oc12 [Example 67, ethyl 2'-chloro-3-methylflavone-8-carboxylate] | 100 | 42.9 | 19.8 |  | 
14 | CCN(CC)C(=O)c1cccc2c(=O)c(C)c(-c3ccccc3Cl)oc12 [Example 68] | 55.3 | 9.8 | 21.1 |  | 
15 | Cc1c(-c2ccccc2Cl)oc2c(C(=O)OCCO)cccc2c1=O [Example 69, beta-hydroxyethyl 2'-chloro-3-methylflavone-8-carboxylate] | 55.3 | 9.8 | 14.3 |  | 
16 | CCOC(=O)c1cccc2c(=O)c(C)c(-c3ccc(Cl)cc3)oc12 [Example 71, ethyl 4'-chloro-3-methylflavone-8-carboxylate] | 10.3 | 6.0 | 36.9 |  | 
17 | CCN(CC)C(=O)c1cccc2c(=O)c(C)c(-c3ccc(Cl)cc3)oc12 [Example 72, 4'-chloro-3-methylflavone-8-carboxylic acid N,N-diethylamide] | 42.1 | 7.5 | 16.3 |  | 
18 | CCNC(=O)c1cccc2c(=O)c(C)c(-c3ccc(Cl)cc3)oc12 [Example 73, 4'-chloro-3-methylflavone-8-carboxylic acid N-ethylamide] | 29.4 | 6.2 | 19.4 |  | 
19 | Cc1c(-c2ccc(Cl)cc2)oc2c(C(=O)OCCO)cccc2c1=O [Example 74, beta-hydroxyethyl 4'-chloro-3-methylflavone-8-carboxylate] | 52.0 | 18.7 | 17.3 | 0/4 | 
20 | Cc1c(-c2cc(Cl)ccc2Cl)oc2c(C(=O)O)cccc2c1=O [Example 76, 2',5'-dichloro-3-methylflavone-8-carboxylic acid] | 65.2 | 40.0 | 13.2 |  | 
21 | CCOC(=O)c1cccc2c(=O)c(C)c(-c3cc(Cl)ccc3Cl)oc12 [Example 77, ethyl 2',5'-dichloro-3-methylflavone-8-carboxylate] | 67.4 | 6.9 | 16.3 |  | 
22 | CCN(CC)C(=O)c1cccc2c(=O)c(C)c(-c3cc(Cl)ccc3Cl)oc12 [Example 78, 2',5'-dichloro-3-methylflavone-8-carboxylic acid N,N-diethylamide] | 79.3 | 5.6 | 26.3 |  | 
23 | CCOC(=O)c1cccc2c(=O)c(C)c(-c3ccc(Cl)cc3Cl)oc12 [Example 80, ethyl 2',4'-dichloro-3-methylflavone-8-carboxylate] | 61.7 | 17.6 | 21.3 |  | 
24 | CCN(CC)C(=O)c1cccc2c(=O)c(C)c(-c3ccc(Cl)cc3Cl)oc12 [Example 81, 2',4'-dichloro-3-methylflavone-8-carboxylic acid N,N-diethylamide] | 57.1 | 9.8 | 20.4 |  | 
